Entries after “also recorded” stand apart in the source; their conditions may differ. Each block holds one compound with its values, some of them ahead of it.
Columns and labels:
human iTCR = experiment: In vitro activation of human iTCR through Jurkat reporter cell line (JiNKT, GFP under NFkB promoter) with drug-loaded BWSTIM cells; type: cell-based; conditions: for EC50 of the dose response based on percentage GFP+ cells, compared to α-GalCer: BWSTIM loaded 4 hours, co-culture with JiNKT 18 to 24 hours, FIG. 1
Experimental: In order to determine the human iTCR activation potential induced by the compounds described herein, a jurkat cell line (JiNKT) was transfected with the human iTCR, and GFP under the NFkB promoter (cell line licensed from the Medical University of Vienna). A BWS147 cell line (BWSTIM) was also transfected with CD80 and CD1d to act as the antigen-presenting cell.
(§1) DCD molecules or α-GalCer were both dissolved in DMSO at a 5 mg/mL stock solution. BWSTIM cells were loaded with DCD molecules or α-GalCer at varying concentrations for 4 hours at 37° C. at a concentration of 20 k cells/well in 200 μL of media in a u-bottom 96 well dish. BWSTIM cells were washed 2× with media, then incubated with JiNKT cells at a concentration of 80 k cells/well in a u-bottom 96 well dish. Cells were co-cultured for 18 to 24 hours. The percentage of cells expressing high levels of GFP was measured through flow cytometry (after gating out the mCD45+ BWSTIM cells).
(§2) A jurkat cell line (JiNKT) was transfected with the human iTCR, and GFP under the NFkB promoter. A BWS147 cell line (BWSTIM) was also transfected with CD80 and CD1d to act as the antigen-presenting cell. A mouse iNKT hybridoma cell line (DN3.2) was also used as the iNKT. […]
as §1, with “GVK” for “DCD”, “compounds” for “DCD molecules or α-GalCer at varying concentrations”, “for” for “for 18 to”, “cytometry. 1 μg/mL of molecule GVK1a, GVK1b, GVK1c, or GVK1f was incubated with BWSTIM+JiNKT, and compared to α-GalCer.” for “cytometry (after gating out the mCD45+ BWSTIM cells).”

mouse iTCR = experiment: In vitro activation of mouse iTCR, DN3.2 iNKT hybridoma with drug-loaded BWSTIM cells, IL-2 secretion; type: cell-based; conditions: for IL-2 secretion compared to α-GalCer: drug loaded at 0.01 μg/mL, 48 hours co-culture, FIG. 2
Experimental: In order to determine the mouse iTCR activation potential induced by the compounds described herein, a mouse iNKT hybridoma cell line (DN3.2) from the La Jolla Institute for Allergy and Immunology were used as the iNKT. The BWS147 cell line (BWSTIM) with CD80 and CD1d acted as the antigen-presenting cell.
(§3) DCD molecules or α-GalCer were both dissolved in DMSO at a 5 mg/mL stock solution. BWSTIM cells were loaded with DCD molecules or α-GalCer of varying concentrations for 4 hours at 37° C. at a concentration of 20 k cells/well in 200 μL of media in a u-bottom 96 well dish. BWSTIM cells were washed 2× with media, then incubated with DN3.2 cells at a concentration of 80 k cells/well in a u-bottom 96 well dish. Cells were co-cultured for 48 hours. Media was collected and IL-2 was measured using the CisBio HTRF ELISA detection kit.
as §2
as §3, with “GVK” for “DCD”, “compounds” for “DCD molecules or α-GalCer of varying concentrations”

primary human iNKT cells = experiment: Cytokine secretion of primary human iNKT cells co-cultured with drug-loaded BWSTIM cells; type: cell-based; conditions: for IFNγ secretion compared to the no-compound control / IL6 secretion compared to the no-compound control / TNFα secretion compared to the no-compound control: BWSTIM loaded with 10 μg/mL; for IFNγ secretion compared to the no-compound control: FIG. 3A; for IL6 secretion compared to the no-compound control: FIG. 3B; for TNFα secretion compared to the no-compound control: FIG. 3C
Experimental: In order to determine the activation profile induced by the compounds described herein, primary human iNKT cells were co-cultured with drug-loaded BWSTIM cells.
Day 0: PBMCs were isolated from human blood using the STEMCELL TECHNOLOGIES™ SepMate™ PBMC isolation system. iNKT cells were then selected using the Miltenyi NKT magnetic cell separation kit.
Day 2: DCD molecules or α-GalCer were both dissolved in DMSO at a 5 mg/mL stock solution. BWSTIM cells were fixed with mitomycin C, then loaded with 10 μg/mL of DCD molecules or α-GalCer for 4 hours at 37° C. at a concentration of 20 k cells/well in 200 μL of media in a u-bottom 96 well dish. Cells were co-cultured with 80 k 6B11+ selected primary human iNKT cells.
D4: Media was collected. Cytokines were measured using the Satorious 4Plex kit on the iQue3 cytometer.
GVK molecules or α-GalCer were both dissolved in DMSO at a 5 mg/mL stock solution. BWSTIM cells were loaded with compounds for 4 hours at 37° C. at a concentration of 20 k cells/well in 200 μL of media in a u-bottom 96 well dish. Cells were co-cultured with 100 k 6B11+ selected primary human iNKT cells. Media was collected 2 days later. Cytokines were measured using the Satorious 4Plex kit on the iQue3 cytometer.

serum IFNγ = experiment: In vivo serum IFNγ (ELISA) in C57BL/6J mice; conditions: 2 μg I.P.; twenty hours post-injection; FIG. 4A
Experimental: (§4) In order to determine the expansion induced by the molecules described herein, molecules were injected into C57BL/6J mice. Serum IFNγ levels and the expansion of iNKT cells within splenocytes was measured 4 days post-IP injection.
(§5) Eight weeks old C57BL/6J mice were injected (I.P.) with 2 μg of α-GalCer or DCD molecules. Molecules were either dissolved in DMSO at a 5 mg/mL stock solution, or formulated into liposomes through thin-film rehydration, then extrusion through 200 nm filters. Liposome-based formulations were constructed using soy phosphatidylcholine, cholesterol, and DCD or α-GalCer in a 2:1:0.15 ratio. Twenty hours post-injection, blood was collected from the tail to measure the level of serum IFNγ using an ELISA kit from Biolegend. Four days post-injection, the mice were sacrificed and the spleenocytes were isolated. The percentage of iNKT cells within the spleens was measured using flow cytometry, selecting for live cells and mouse CD1d-α-GalCer tetramer+ cells.

iNKT cells [1] = experiment: In vivo iNKT cell expansion in spleen of C57BL/6J mice (flow cytometry); conditions: 2 μg I.P.; four days post-injection; FIG. 4B
Experimental: as §4, §5

iNKT cells [2] = experiment: Diet induced obesity (HFD) mouse model: iNKT cell expansion in spleen or eWAT; type: in vivo, C57BL/6J mice; conditions: HFD mice, I.P. 2 g, four days post-injection
Experimental: (§6) Senescence is a feature of pre-adipocytes in obese individuals. To study the efficacy of the molecules described herein in decreasing senescence in fat, a diet induced obesity high fat diet (HFD) mouse model was used. 22-week-old HFD mice were injected with α-GalCer as a control and compared with the compounds of the present disclosure. The blood and spleen (or adipose tissue) were collected to measure iNKT activation and expansion, respectively. Cells in the eWAT (adipose tissue) were also collected and measured for % senescent cells. HFD mice were compared to non-HFD (normal diet) mice.
(§7) 22-week-old C57BL/6J mice on a chow or high-fat diet (HFD) were injected (I.P) with […] of α-GalCer, compound DCD-101 or compound DCD-154. Molecules were either dissolved in DMSO at a 5 mg/mL stock solution, or formulated into liposomes through thin-film rehydration, then extrusion through 200 nm filters. Liposome-based formulations were constructed using soy phosphatidylcholine, cholesterol, and DCD or α-GalCer in a 2:1:0.15 ratio. Two or twenty hours post-injection, blood was collected from the tail to measure the level of IFNγ using ELISA. Four days post-injection, mice were sacrificed to collect eWAT or spleen. Spleen was used to measure the number of iNKT cells, and eWAT was used to measure the number of iNKT cells and senescent cells using flow cytometry. iNKT cells were identified in the digested adipose tissue by gating live cells and mouse CD1d-α-GalCer tetramer+ cells. Senescent cells were measured withing the processes adipose tissue by selecting mCD45− cells, and C12FDG^HIGH cells.

IFNγ = experiment: Diet induced obesity (HFD) mouse model: serum IFNγ (ELISA); type: in vivo, C57BL/6J mice; conditions: for secretion of IFNγ in the HFD mouse model: between two and twenty hours post-treatment
Experimental: as §6, §7

senescent cells in eWAT = experiment: Diet induced obesity (HFD) mouse model: senescent cells (C12FDG+) in eWAT; type: in vivo, C57BL/6J mice; conditions: HFD mice, four days post-injection; FIG. 5E
Experimental: as §6, §7

DN3.2 = experiment: IL-2 Secretion (A20 + DN3.2); type: cell-based, mouse
[3] = GVK compounds vs absence of drug loading, α-GalCer vs GVK compounds, media collected 2 days later, FIG. 6C

SMILES: CCCCCCCCCCCCCC[C@@H](O)[C@@H](O)[C@H](COC1OC(CO)C(O)C(O)C1O)NC(=O)CCCCCCCCCCC12CCC(CC1)CC2 (some centres unmarked) [DCD-102]
IL-2 secretion compared to α-GalCer (mouse iTCR): greater IL-2 secretion than α-GalCer

SMILES: CCCCCCCCCCCCCC[C@@H](O)[C@@H](O)[C@H](COC1OC(CO)C(O)C(O)C1O)NC(=O)CCCCCCCCCCC12CC(CCCCCCCCCCCCC)(C1)C2 (some centres unmarked) [DCD-154]
average serum IFNγ compared to α-GalCer (serum IFNγ): higher than the average serum IFNγ of C57BL/6J mice treated with α-GalCer | average iNKT cell isolated from the spleen compared to α-GalCer (iNKT cells [1]): higher than mice treated with α-GalCer | expansion of immune (iNKT) cells in HFD mouse eWAT (iNKT cells [2]; percent iNKT cells of live cells, FIG. 5B): caused expansion of immune cells in HFD mouse eWAT; also recorded: expand iNKT cells | secretion of IFNγ in the HFD mouse model (IFNγ): induce secretion of IFNγ | levels of IFNγ in the HFD model (IFNγ; twenty hours post injection, FIG. 5D): significantly increased levels of IFNγ | accumulation of senescent cells (C12FDG+) in eWAT (senescent cells in eWAT): effective in decreasing the accumulation of senescent cells in eWAT; also recorded: Senescent cell reduction in adipose tissue is observed

SMILES: CCCCCCCCCCCCCC[C@@H](O)[C@@H](O)[C@H](COC1OC(CO)C(O)C(O)C1O)NC(=O)CCCCCCCCCCCCCCCCCCCCCCCCC12CC(F)(C1)C2 (some centres unmarked) [DCD-156]
EC50 of the dose response based on percentage GFP+ cells, compared to α-GalCer (human iTCR): lower EC50s compared to α-GalCer | average serum IFNγ compared to α-GalCer (serum IFNγ): higher than the average serum IFNγ of C57BL/6J mice treated with α-GalCer

SMILES: CCCCCCCCCCCCCCCCCCCCCCCCCC(=O)N[C@@H](CCC1OC(CO)C(O)C(O)C1O)[C@@H](O)[C@H](O)CCCCCCCCCCCCCC (some centres unmarked) [GVK1a]
GFP expression compared to the negative control (human iTCR; 1 μg/mL, BWSTIM + JiNKT, 24 hours, FIG. 6A): did not induce GFP expression higher than the negative control | % GFP hiNKT binding (BWSTIM + JiNKT) 1 μg/mL, away from negative control (human iTCR; 1 μg/mL, difference from negative control): % <5 away from | secretion of IFNγ (primary human iNKT cells; [3]): did not increase secretion | secretion of IL-4 (primary human iNKT cells; [3]): did not increase secretion | secretion of IL-6 (primary human iNKT cells; [3]): did not increase secretion | secretion of TNFα (primary human iNKT cells; [3]): did not increase secretion | Primary iNKT cytokine release (primary human iNKT cells; IL-4, IL-6, IFNγ or TNFα): No activation | IL-2 Secretion (A20 + DN3.2) (DN3.2): Activated

The next lines start with results.

EC50 of the dose response based on percentage GFP+ cells, compared to α-GalCer (human iTCR): lower EC50s compared to α-GalCer
SMILES: CCCCCCCCCCCCCC[C@@H](O)[C@@H](O)[C@H](COC1OC(CO)C(O)C(O)C1O)NC(=O)CCCCCCCCCCC1CC1C (some centres unmarked) [DCD-106]
IL-2 secretion compared to α-GalCer (mouse iTCR): greater IL-2 secretion than α-GalCer | IFNγ secretion compared to the no-compound control (primary human iNKT cells): significantly higher levels | IL6 secretion compared to the no-compound control (primary human iNKT cells): significantly higher levels | TNFα secretion compared to the no-compound control (primary human iNKT cells): significantly higher levels

EC50 of the dose response based on percentage GFP+ cells, compared to α-GalCer (human iTCR): lower EC50s compared to α-GalCer
SMILES: CCCCCCCCCCCCCC[C@@H](O)[C@@H](O)[C@H](COC1OC(CO)C(O)C(O)C1O)NC(=O)CCCCCCCCCCCCCCCCCCCCCCCC1COC1 (some centres unmarked) [DCD-153]
average serum IFNγ compared to α-GalCer (serum IFNγ): higher than the average serum IFNγ of C57BL/6J mice treated with α-GalCer | average iNKT cell isolated from the spleen compared to α-GalCer (iNKT cells [1]): higher than mice treated with α-GalCer

EC50 of the dose response based on percentage GFP+ cells, compared to α-GalCer (human iTCR): lower EC50s compared to α-GalCer
SMILES: CCCCCCCCCCCCCC[C@@H](O)[C@@H](O)[C@H](COC1OC(CO)C(O)C(O)C1O)NC(=O)CCCCCCCCCCC12CC(F)(C1)C2 (some centres unmarked) [DCD-101]
IL-2 secretion compared to α-GalCer (mouse iTCR): greater IL-2 secretion than α-GalCer | IL-2 secretion (mouse iTCR; ranking among tested compounds, at the lowest concentrations): highest IL-2 secretion at the lowest concentrations | IFNγ secretion compared to the no-compound control (primary human iNKT cells): significantly higher levels | IL6 secretion compared to the no-compound control (primary human iNKT cells): significantly higher levels | TNFα secretion compared to the no-compound control (primary human iNKT cells): significantly higher levels | expansion of immune (iNKT) cells in HFD mouse spleen (iNKT cells [2]; FIG. 5A): caused expansion of immune cells in HFD mouse spleen; also recorded: expand iNKT cells | secretion of IFNγ in the HFD mouse model (IFNγ): induce secretion of IFNγ | levels of serum IFNγ in the HFD model (IFNγ; two hours post injection, FIG. 5C): significantly increased levels of IFNγ | accumulation of senescent cells (C12FDG+) in eWAT (senescent cells in eWAT): effective in decreasing the accumulation of senescent cells in eWAT; also recorded: Senescent cell reduction in adipose tissue is observed
